Measurements from patent publication US9687486B2, “Methods of treating atherosclerosis or myeloproliferative neoplasms by administering a lyn kinase activator” (THE TRUSTEES OF COLUMBIA UNIVERSITY IN THE CITY OF NEW YORK, priority 2012, dated 2017).
Where a SMILES comes first, the peptide text is derived from it. The star is where a group is joined. Cbz = O=C(OCc1ccccc1)*

Key:
p-STAT-5 and p-ERK1/2 = test: p-STAT5 and p-ERK1/2 levels in MkPs with or without TPO; type: cell-based, mouse; conditions: WT and Abcg4−/− MkPs; TPO 30 ng/ml for 10 minutes
Experimental: FIG. 3. Shown are results all from WT, Abcg4^−/− or Lyn^−/− MkPs (n=4). (A) Quantification of tyrosine-phosphorylated c-CBL in response to TPO. (B) Tyrosine-phosphorylated c-CBL levels 5 min after TPO treatment and with or without pretreatment with CD (3 mM), CD-chol (3 mM CD) for 30 min or rHDL (20 μg apoA-I/ml) for 2 hours. (C) Tyrosine-phosphorylated c-CBL with or without 5 min TPO treatment or SU6656 pretreatment (10 μg/ml for 2 h). (D) Cell surface c-MPL with or without TPO or SU6656 treatment for 2 h. (E) Tyrosine-phosphorylated c-CBL (5 min in response to TPO). (F) cell surface c-MPL (2 h TPO treatment) with or without pretreatment with CD-chol (3 mM CD) for 30 min. (G) 16 h EdU incorporation in the presence of TPO and with or without CD (3 mM), CD-Chol (3 mM CD) pretreatment for 30 min or rHDL (20 μg/ml) for 16 h. (H) p-STAT-5 and p-ERK1/2 levels with or without TPO for 10 minutes. TPO was 30 ng/ml for all the assays shown. Error bars are S.E.M. *P<0.05 WT vs Abcg4^−/− TPO and ^P<0.05 for treatment effect.

platelets = test: Platelet count after a single dose of recombinant TPO in chow-fed mice; type: in vivo, mouse; conditions: single dose TPO 50 μg/kg BW
Experimental: FIG. 2. (A) Abcg4 mRNA expression in various types of BM and peripheral white blood cells in WT mice determined by q-PCR. (n=5). (B) Quantification of BM cell populations and (C) cell surface c-MPL levels of Ldlr^−/− recipient mice fed WTD for 12 weeks (n=5). (D) MK-CFU assay using HPCs harvested by FACS from WT or Abcg4^−/− mice. (E) Platelet count in the WT and Abcg4^−/− mice (n=5) receiving a single dose of TPO (50 μg/kg BW) or the vehicle control. The representative of two studies with similar results is shown. (F) Bodipy-cholesterol efflux from WT or Abcg4^−/− MkPs to CD (2 mM) or rHDL (20 μg/ml) for 2 hours (n=4). (G) Bodipy-cholesterol levels in WT or Abcg4^−/− MkPs following CD/Bodipy-cholesterol loading (n=4). (H) EdU incorporation into and (I) cell surface c-MPL of WT or Abcg4^−/− MkPs were determined by flow cytometry (n=4). Error bars are S.E.M. *P<0.05 WT versus Abcg4^−/− groups and ^P<0.05 for treatment effect.
Mice and Treatments Abcg4^−/−, Abcg1 Abca1^−/−, and Abcg1^−/− mice were created as described (Wang, N. et al. 2006; Yvan-Charvet, L. et al. 2010) and used in this study. Abcg4^−/− mice have been backcrossed onto C57BL6/J mice for more than 10 generations. WT (C57BL/6J) and Ldlr^−/− (B6.12957-Ldlrtm1Her) were obtained from The Jackson Laboratory (Bar Harbor, Me.). […]
CBCs were quantified using whole blood collected from the tail bleeding. […]

[1] = test system: LacZ-positive splenic cells; test: LacZ-positive splenic cells after phenylhydrazine injection; type: in vivo, mouse; conditions: Abcg4−/− mice on chow diet, 3 days after injections
Source text: FIG. 6. (A) Representative of LacZ staining of BM sections of WT or Abcg4^−/− mice fed chow diet. Megakaryocytes are indicated by black arrows while LacZ-positive cells are indicated by white arrows Original magnification 20×. (B) Lac-Z staining of spleen of WT and Abcg4^−/− mice fed the chow diet and (C) from Abcg4^−/− BM Ldlr^−/− recipient mice fed WTD for 12 weeks. (D) Representative LacZ staining of spleen sections and quantification of LacZ-positive splenic cells of Abcg4^−/− mice fed the chow diet 3 days after either vehicle or phenylhydrazine injections. Error bars are S.D (n=5). * P<0.05.
Tissues and proximal aortas were serially paraffin sectioned and stained with H&E for morphological analysis as described^2. Aortic lesion size of each animal was calculated as the mean of lesion areas in 5 sections from the same mouse. Bone samples were decalcified with EDTA solution prior to cryosectioning. Von Willibrand Factor antibody (Dako, Catalog #A0082) was used to stain MKs. Lac-Z staining of frozen sections of mouse bone, spleen or proximal aorta was carried out using β-Galactosidase Staining Kit (Cell Signaling Technology, Danvers, Mass.).

c-CBL = test: c-Cbl tyrosine phosphorylation in MkPs in response to TPO, flow cytometry; type: cell-based, mouse
Experimental: BM progenitor cells were stimulated with TPO at the indicated concentration for the specified period of time at 37° C. and then immediately diluted with ice-cold buffer and placed on ice to prevent further changes in phosphorylation. Cells were then centrifuged and the pellet resuspended in BD fix buffer (BD Biosciences) for 10 mins on ice. The cells were washed with BD flow cytometry staining buffer, centrifuged and then resuspended in BD cytofix/perm buffer III for 20 mins. After this the cells were washed and resuspended in BD staining buffer and incubated with lineage (Sca1, CD127, CD45R, CD19, CD11b, CD3e, TER-119, CD2, CD8, CD4, and Ly-6G; all FITC; eBioscience) and progenitor cell markers, ckit, CD16/CD32 (FcγRII/III), CD34, CD41 and anti-phospho-c-Cbl ([…]/[…]; BD biosciences) or an isotype control for 30 mins on ice. The cells were then washed, resuspended in FACS buffer and run on an LSRII. Phosphorylated c-Cbl was normalized against isotype control staining.

c-MPL [2] = test: Cell surface c-MPL levels in MkPs by flow cytometry; type: cell-based, mouse; conditions: TPO 30 ng/ml
Experimental: Detection of c-MPL from in vivo and in vitro experiments was performed as follows. After harvesting BM progenitor cells, RBCs were lysed and the cells were then resuspended in FACS buffer. Cells were then stained with a cocktail of lineage markers to allow negative selection of BM progenitor cells (Sca1, CD127, CD45R, CD19, CD11b, CD3e, TER-119, CD2, CD8, CD4, and Ly-6C/G; all FITC; eBioscience) and progenitor cell markers, ckit, CD16/CD32 (FcγRII/III), CD34, CD41 and c-MPL or isotype control and allowed to stain on ice for 30 mins. Cells were then washed and stained with a fluorescently conjugated secondary anti-rabbit antibody to detect the anti-c-MPL for a further 30 mins on ice. After this the cells were washed, resuspended in FACS buffer and run on the LSRII. MEPs were identified as lin^− ckit^+CD16/CD32^loCD34^loCD41^−, while MkPs were identified as lin^−ckit^+CD16/CD32^loCD34^loCD41^+.

c-MPL [3] = target: T1, c-MPL (Mus musculus, UniProt Q08351); conditions: mice and other species; Broudy & Lin 2004; cited from earlier work
T1 construct: increasing platelet counts in mice and other species; host or cells: mice (in vivo)
T1 sequence (Q08351 26-625): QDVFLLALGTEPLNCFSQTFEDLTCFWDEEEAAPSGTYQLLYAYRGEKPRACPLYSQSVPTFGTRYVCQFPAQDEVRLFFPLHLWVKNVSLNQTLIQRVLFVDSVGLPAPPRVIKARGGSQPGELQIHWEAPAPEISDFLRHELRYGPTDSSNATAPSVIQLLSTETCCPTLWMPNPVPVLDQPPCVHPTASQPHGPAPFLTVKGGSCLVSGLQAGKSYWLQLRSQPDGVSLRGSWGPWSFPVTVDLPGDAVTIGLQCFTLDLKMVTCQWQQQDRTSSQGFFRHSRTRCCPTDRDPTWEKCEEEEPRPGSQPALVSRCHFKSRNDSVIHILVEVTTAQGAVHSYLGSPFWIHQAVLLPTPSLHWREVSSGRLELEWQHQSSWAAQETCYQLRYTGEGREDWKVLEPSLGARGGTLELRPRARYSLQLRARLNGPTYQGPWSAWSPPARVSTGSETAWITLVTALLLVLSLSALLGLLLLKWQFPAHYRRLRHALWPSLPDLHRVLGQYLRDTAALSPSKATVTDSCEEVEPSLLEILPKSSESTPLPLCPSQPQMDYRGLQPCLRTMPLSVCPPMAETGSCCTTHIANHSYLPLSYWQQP

[4] = test system: total BM cells from WT or Abcg4−/− mice; test: MK-CFU assay with total BM cells, with or without CD pretreatment; type: cell-based, mouse; conditions: CD 3 mM pretreatment for 30 minutes
Experimental: FIG. 13. (A) Fluorescence confocal microscopy of WT or Abcg4^−/− MkPs treated with CD/Bodipy-cholesterol (0.03 mM CD) for 30 min and (B) confocal microscopy and quantification of fillipin stained WT or Abcg4^−/− MkPs. Gene expression was determined by q-PCR in (C) MEPs or (D) GMPs from the WT or Abcg4^−/− BM Ldlr^−/− recipient mice (n=5) fed WTD for 12 weeks. Error bars are S.D (n=10). *P<0.05. (E) MK-CFU assays using total BM cells from WT or Abcg4^−/− mice with or without pretreatment with CD (3 mM) for 30 minutes. Error bars are S.E.M. *P<0.05.
Primary BM HSPC cells obtained by FACS were plated in methylcellulose-based media (5000 cells/assay) containing TPO (50 ng/mL), IL-6 (20 ng/mL), and IL-3 (10 ng/mL) and incubated for 8 days according to manufacturer's protocol (Megacult-C, Stemcell Technologies). Cultures were fixed and the MK colonies visualized by staining for acethylcholinesterase activity. Nuclei were counterstained with Harris' hematoxylin. Colonies containing more than 3 megakaryocytes were scored as CFU-Mk.

MkPs = test: MkP proliferation by EdU incorporation; type: cell-based, mouse; conditions: in the presence of TPO
Experimental: FIG. 3. Shown are results all from WT, Abcg4^-/- or Lyn^-/- MkPs (n=4). (A) Quantification of tyrosine-phosphorylated c-CBL in response to TPO. (B) Tyrosine-phosphorylated c-CBL levels 5 min after TPO treatment and with or without pretreatment with CD (3 mM), CD-chol (3 mM CD) for 30 min or rHDL (20 μg apoA-I/ml) for 2 hours. (C) Tyrosine-phosphorylated c-CBL with or without 5 min TPO treatment or SU6656 pretreatment (10 μg/ml for 2 h). (D) Cell surface c-MPL with or without TPO or SU6656 treatment for 2 h. (E) Tyrosine-phosphorylated c-CBL (5 min in response to TPO). (F) cell surface c-MPL (2 h TPO treatment) with or without pretreatment with CD-chol (3 mM CD) for 30 min. (G) 16 h EdU incorporation in the presence of TPO and with or without CD (3 mM), CD-Chol (3 mM CD) pretreatment for 30 min or rHDL (20 μg/ml) for 16 […]-5 and p-ERK1/2 levels with or without TPO for 10 minutes. TPO was 30 ng/ml for all the assays shown. Error bars are S.E.M. *P<0.05 WT vs Abcg4^-/- TPO and ^P<0.05 for treatment effect. Blood leukocytes and BM HSPCs were stained and analyzed or sorted as described (Murphy, A. J. et al. 2011). Briefly, BM cells from the mouse femurs and tibias were stained with a cocktail of antibodies to lineage committed cells (CD45R, CD19, CD11b, CD3e, TER-119, CD2, CD8, CD4, Ly-6C/G: All FITC, eBioscience), antibodies to Sca1 (Pacific Blue) and ckit (APC Cy7) to identify HSPC populations and LSK (lin-, Sac1+ and ckit+) cells, and antibodies to CD16/CD32 (FcγRII/III), CD34 to separate CMP (lin-, Sca1-, ckit+, CD34int, […] (lin-, Sca1-, ckit+, CD34int, […] (lin-, Sca1-, ckit+, CD34lo, FcγRII/IIIlo). For DNA content analysis (G2M phase), BM cells were fixed, and stained with DAPI (Invitrogen) prior to flow cytometry analysis. To determine in vivo cell proliferation, EdU (Invitrogen) was injected into mice via the tail vein 24 hours prior to being sacrificed. Cells were immunostained as described above in preparation for flow cytometry. Cells were then fixed and permeabilized using 0.01% saponin (w/v; Fluka) and 1% FCS (v/v) in IC fixation buffer (eBiosciences) for 30 minutes. Cells were then washed and stained with Alexa Fluor-conjugated azides using the Click-iT system (Invitrogen). Proliferation was quantified as percentage of EdU^+ cells by flow cytometry.

## TPO: Thrombopoietin, growth factor regulating megakaryocyte/platelet lineage development (R&D Systems)
p-STAT-5 and p-ERK1/2
  p-ERK1/2 levels: increased
  p-STAT5 levels: increased
platelets; chow-fed Abcg4−/− mice
  increase in platelets: 2.1 fold
platelets; chow-fed WT mice
  increase in platelets: 1.4 fold

## NNc1ccccc1 [phenylhydrazine]
[1]
  LacZ positive cells in the spleen: marked expansion

## CCN(CC)CCO[C@H]1CC[C@@]2(C)C(=CC[C@@H]3[C@@H]2CC[C@]2(C)C(=O)CC[C@@H]32)C1 [U18666A]
c-CBL; Abcg4−/− MkPs
  c-CBL tyrosine phosphorylation: reversed
c-MPL [2]; Abcg4−/− MkPs
  cell surface c-MPL levels: reversed

## Romiplostim
c-MPL [3]
  platelet counts: increasing

## cyclodextrin [CD]
[4]
  increase in megakaryocyte colonies associated with ABCG4 deficiency: reversed
c-CBL; WT and Abcg4−/− MkPs
  c-CBL tyrosine phosphorylation: increased
MkPs; Lyn−/− MkPs
  MkP proliferation: completely unresponsive
MkPs; WT MkPs
  MkP proliferation: decreased
MkPs; WT and Abcg4−/− MkPs
  MkP proliferation: significantly reduced
c-MPL [2]; WT and Abcg4−/− MkPs
  cell surface c-MPL levels: significantly reduced

## CN(C)S(=O)(=O)c1ccc2c(c1)/C(=C/c1cc3c([nH]1)CCCC3)C(=O)N2 [SU6656]
c-CBL; WT and Abcg4−/− MkPs
  c-CBL tyrosine phosphorylation: markedly decreased
c-MPL [2]; WT and Abcg4−/− MkPs
  cell surface c-MPL levels: increased

## CC(C)C[C@@H](C=O)NC(=O)[C@H](CC(C)C)NC(=O)[C@H](CC(C)C)NC(=O)OCc1ccccc1 [MG132] (Cbz-Leu-Leu-Leu-aldehyde)
c-MPL [2]; WT MkPs
  cell surface c-MPL levels: increased
